Results reported in patent US10011578B2, “Compounds for stabilizing ryanodine receptors from aberrant levels of calcium release” (Rosalind Franklin University of Medicine and Science, priority 2013, dated 2018).
“Also recorded” adds a separate entry of the source.

Key:
RyR [1] = experiment: RyR-evoked calcium response in CA1 pyramidal neurons of hippocampal brain slices, acute incubation; format: cell-based, mouse; conditions: 3×Tg-AD hippocampal slices, caffeine, 10 μM, 1 hour incubation
Procedure: 3×Tg-AD, TgCRND8, PS1/APP, and nontransgenic (NonTg) J29/C57BL6 control mice were bred in-house. Adult male and female mice 3-5 months old were used. Animals were cared for and used in accordance with protocols approved by the Rosalind Franklin University of Medicine and Science Animal Care and Use Committee. […] Whole-cell patch-clamp recordings were conducted at room temperature (23° C.) in continuously superfused aCSF (1.5-2.0 mL/min). […] Hippocampal CA1 pyramidal neurons were identified visually via infrared differential interference contrast (IR-DIC) optics, and electrophysiologically by their passive membrane properties and spike frequency accommodation. […] Minianalysis 6.0.7 (Synaptosoft, Fort Lee, N.J.) was used to detect and measure spontaneous excitatory postsynaptic potential (sEPSP) events with a minimal amplitude of 0.2 mV and minimal area of 3 mV*msec.
(§1) Voltage-gated Ca^2+ channel (VGCC) responses were elicited by depolarization via current injected through the patch pipette with the current level adjusted to elicit a train of 8-10 spikes.

RyR [2] = experiment: Sub-chronic in vivo treatment of 3×Tg-AD mice, RyR-evoked calcium responses in CA1 neurons; design: species or system mouse; conditions: 10 mg/kg ip, 4 weeks, 10 mM caffeine on acute slices
Procedure: 3×Tg-AD, TgCRND8, PS1/APP, and nontransgenic (NonTg) J29/C57BL6 control mice were bred in-house. Adult male and female mice 3-5 months old were used. Animals were cared for and used in accordance with protocols approved by the Rosalind Franklin University of Medicine and Science Animal Care and Use Committee. Hippocampal brain slices (300 μm) were prepared as previously described (Briggs et al., Neurobiol. Aging, 2013, 34:1632-1643). Mice were anesthetized with halothane, decapitated, and the brain removed into ice-cold sucrose cutting solution (200 mM sucrose, 1.5 mM KCl, 0.5 mM CaCl2, 4.0 mM MgCl2, 1.0 mM KH2PO4, 25 mM NaHCO3, 10 mM Na-ascorbate, and 20 mM dextrose, equilibrated with 95% O2/5% CO2). Horizontal hippocampal slices were prepared in a Camden Instruments vibratome with the chamber filled with ice-cold sucrose cutting solution and then transferred to and maintained in standard artificial cerebrospinal fluid (aCSF; 130 mM NaCl, 2.5 mM KCl, 2.0 mM CaCl2, 1.2 mM MgSO4, 1.25 mM NaH2PO4, 25 mM NaHCO3, and 10 mM dextrose [305-310 mOsm], equilibrated with 95% O2/5% CO2, pH 7.3-7.4) at 32° C. for at least 1 hour before use. […] Membrane potentials were obtained in current-clamp mode, acquired at 10 kHz with a Digidata 1322 A-D converter and Multiclamp 700B amplifier, and recorded and analyzed using pClamp 10.2 (Molecular Devices). […]

[3] = Sub-chronic in vivo treatment of 3×Tg-AD mice, heart weight and body weight; design: species or system mouse; conditions: 10 mg/kg ip, 4 weeks
Procedure: Ca^2+ signaling and electrophysiological properties of CA1 pyramidal neurons were studied in hippocampal brain slices according to the protocols disclosed in Example 1. Briefly, 3×Tg-AD mice were treated with either saline (0.9%), CK013 or CK017 for four weeks (10 mg/kg; ip), and then acute hippocampal brain slice preparations were made for the purposes of performing whole cell patch clamp recordings and 2-photon calcium imaging in CA1 pyramidal neurons. The objective was to determine if our compounds could restore normal RyR-mediated calcium signaling in the AD mice and maintain normal membrane physiology.
Also, passive membrane properties such as resting membrane potential and membrane input resistance were not affected by these compounds. […] Additionally, there were no statistically significant differences in the ratio of heart weight:body weight among the treatment groups (Table 4; p>0.05), nor were there differences in absolute body weights or heart weights among the groups (data not shown; […]).

[4] = molecular target: T1, RyR (RyR2-expressing N2A cell line) (Mus musculus, UniProt E9Q401); experiment: RyR-evoked (caffeine) calcium response in N2A cells, 2-photon fura-2 imaging; format: cell-based; conditions: for effect on caffeine-stimulated Ca^2+ release compared with dantrolene: 10 μM; for Ca^2+ Inc (Ca^2+ increase over baseline): caffeine-stimulated, compounds tested at 10 μM
T1 construct: tested using a RyR2-expressing N2A cell line; host or cells: N2a (Neuro-2a) cells
Procedure: All incubations and washes were at 37° C. with 10% CO2.
Glass cover slips with fura 2-AM-filled N2a cells were placed in a submersion chamber on the stage of an upright Olympus BX51 microscope which is coupled to a 2-photon laser imaging system. […] Ca^2+ imaging of individual cells was accomplished using a custom-made video-rate 2-photon imaging system. Laser excitation was provided by 100 fs pulses at 780 nm (80 MHz) from a Ti:sapphire laser (Mai Tai Broadband, Spectra-Physics). The laser beam was scanned by a resonant galvanometer (General Scanning Lumonics), allowing rapid (7.9 kHz) bidirectional scanning in the x-axis, and by a conventional linear galvanometer in the y-axis, to provide a full-frame scan rate of 30 frames/s. The laser beam was focused onto the cells through an Olympus 40× water-immersion objective (numerical aperture 0.8). Emitted fluorescence light was detected by a wide-field photomultiplier (Electron Tubes) to derive a video signal that was captured and analyzed by Video Savant 5.0 software (10 Industries). Further analysis of background-corrected images was performed using MetaMorph software. For clarity, results are expressed as inverse ratios so that increases in [Ca^2+ correspond to increasing ratios. The % change is calculated as [(F0/ΔF)−1]*100 where F0 is the average resting fluorescence at baseline and ΔF is the decrease of fluorescence reflecting Ca^2+ release. Differences between treatment groups were assessed using two-way ANOVA and Scheffe post hoc analysis for significance (p<0.05). Somatic Ca^2+ responses in all cells in the field of view were analyzed (n=8-20), with the nucleus region excluded. All compounds were tested in triplicate.

Log P (Table 1) = format: physicochemical
[5] = Brain/plasma ratio, brain levels in vivo; conditions: for Kp: brain and plasma
[6] = Aqueous solubility at pH 7.4; format: physicochemical
[7] = tested on: AD mouse models (3×Tg-AD and PS1/APP); experiment: 4-week dantrolene treatment in AD mouse models (3×Tg-AD, APP/PS1): calcium, amyloid, synaptic integrity, RyR2 expression; format: in vivo
Procedure: 3×Tg-AD, TgCRND8, PS1/APP, and nontransgenic (NonTg) J29/C57BL6 control mice were bred in-house. Adult male and female mice 3-5 months old were used. Animals were cared for and used in accordance with protocols approved by the Rosalind Franklin University of Medicine and Science Animal Care and Use Committee. Hippocampal brain slices (300 μm) were prepared as previously described (Briggs et al., Neurobiol. Aging, 2013, 34:1632-1643). Mice were anesthetized with halothane, decapitated, and the brain removed into ice-cold sucrose cutting solution (200 mM sucrose, 1.5 mM KCl, 0.5 mM CaCl2, 4.0 mM MgCl2, 1.0 mM KH2PO4, 25 mM NaHCO3, 10 mM Na-ascorbate, and 20 mM dextrose, equilibrated with 95% O2/5% CO2). Horizontal hippocampal slices were prepared in a Camden Instruments vibratome with the chamber filled with ice-cold sucrose cutting solution and then transferred to and maintained in standard artificial cerebrospinal fluid (aCSF; 130 mM NaCl, 2.5 mM KCl, 2.0 mM CaCl2, 1.2 mM MgSO4, 1.25 mM NaH2PO4, 25 mM NaHCO3, and 10 mM dextrose [305-310 mOsm], equilibrated with 95% O2/5% CO2, pH 7.3-7.4) at 32° C. for at least 1 hour before use. Whole-cell patch-clamp recordings were conducted at room temperature (23° C.) in continuously superfused aCSF (1.5-2.0 mL/min). Patch pipettes (5-7 MO) were filled with intracellular solution (135 mM K-gluconate, 2.0 mM MgCl2, 4.0 mM Na2-ATP, 0.4 mM Na-GTP, 10 mM Na-phosphocreatine, 10 mM HEPES adjusted to pH 7.3 with KOH) plus 50 μM bis-fura-2 hexapotassium (Life Technologies) as fluorescent Ca^2+ sensor. Hippocampal CA1 pyramidal neurons were identified visually via infrared differential interference contrast (IR-DIC) optics, and electrophysiologically by their passive membrane properties and spike frequency accommodation. Membrane potentials were obtained in current-clamp mode, acquired at 10 kHz with a Digidata 1322 A-D converter and Multiclamp 700B amplifier, and recorded and analyzed using pClamp 10.2 (Molecular Devices). Minianalysis 6.0.7 (Synaptosoft, Fort Lee, N.J.) was used to detect and measure spontaneous excitatory postsynaptic potential (sEPSP) events with a minimal amplitude of 0.2 mV and minimal area of 3 mV*msec. See Chakroborty et al., 2012, J. Neurosci. 32(24):8341-53 for further experimental details.
as §1

TG-CRND8 AD mice = experiment: Chronic dantrolene in TgCRND8 AD mice, CP13 phospho-tau immunostaining; format: in vivo, mouse; conditions: 10 mg/kg IP, 4 weeks
Procedure: Mice are deeply anesthetized with urethane, the thoracic cavity opened, and cannula inserted into the left ventricle of the heart, and a small hole cut into the right atrium. Ice cold saline (3 mL) and then 4% paraformaldehyde (5 mL), or 4% paraformaldehyde/1% glutaraldehyde are perfused through the circulatory system. Following this, the mice are decapitated with sharp scissors and the brain prepared for staining or microscopy.

[8] = chronic oral treatment (10+ months); cited from earlier work

T1 sequence (E9Q401 whole entry): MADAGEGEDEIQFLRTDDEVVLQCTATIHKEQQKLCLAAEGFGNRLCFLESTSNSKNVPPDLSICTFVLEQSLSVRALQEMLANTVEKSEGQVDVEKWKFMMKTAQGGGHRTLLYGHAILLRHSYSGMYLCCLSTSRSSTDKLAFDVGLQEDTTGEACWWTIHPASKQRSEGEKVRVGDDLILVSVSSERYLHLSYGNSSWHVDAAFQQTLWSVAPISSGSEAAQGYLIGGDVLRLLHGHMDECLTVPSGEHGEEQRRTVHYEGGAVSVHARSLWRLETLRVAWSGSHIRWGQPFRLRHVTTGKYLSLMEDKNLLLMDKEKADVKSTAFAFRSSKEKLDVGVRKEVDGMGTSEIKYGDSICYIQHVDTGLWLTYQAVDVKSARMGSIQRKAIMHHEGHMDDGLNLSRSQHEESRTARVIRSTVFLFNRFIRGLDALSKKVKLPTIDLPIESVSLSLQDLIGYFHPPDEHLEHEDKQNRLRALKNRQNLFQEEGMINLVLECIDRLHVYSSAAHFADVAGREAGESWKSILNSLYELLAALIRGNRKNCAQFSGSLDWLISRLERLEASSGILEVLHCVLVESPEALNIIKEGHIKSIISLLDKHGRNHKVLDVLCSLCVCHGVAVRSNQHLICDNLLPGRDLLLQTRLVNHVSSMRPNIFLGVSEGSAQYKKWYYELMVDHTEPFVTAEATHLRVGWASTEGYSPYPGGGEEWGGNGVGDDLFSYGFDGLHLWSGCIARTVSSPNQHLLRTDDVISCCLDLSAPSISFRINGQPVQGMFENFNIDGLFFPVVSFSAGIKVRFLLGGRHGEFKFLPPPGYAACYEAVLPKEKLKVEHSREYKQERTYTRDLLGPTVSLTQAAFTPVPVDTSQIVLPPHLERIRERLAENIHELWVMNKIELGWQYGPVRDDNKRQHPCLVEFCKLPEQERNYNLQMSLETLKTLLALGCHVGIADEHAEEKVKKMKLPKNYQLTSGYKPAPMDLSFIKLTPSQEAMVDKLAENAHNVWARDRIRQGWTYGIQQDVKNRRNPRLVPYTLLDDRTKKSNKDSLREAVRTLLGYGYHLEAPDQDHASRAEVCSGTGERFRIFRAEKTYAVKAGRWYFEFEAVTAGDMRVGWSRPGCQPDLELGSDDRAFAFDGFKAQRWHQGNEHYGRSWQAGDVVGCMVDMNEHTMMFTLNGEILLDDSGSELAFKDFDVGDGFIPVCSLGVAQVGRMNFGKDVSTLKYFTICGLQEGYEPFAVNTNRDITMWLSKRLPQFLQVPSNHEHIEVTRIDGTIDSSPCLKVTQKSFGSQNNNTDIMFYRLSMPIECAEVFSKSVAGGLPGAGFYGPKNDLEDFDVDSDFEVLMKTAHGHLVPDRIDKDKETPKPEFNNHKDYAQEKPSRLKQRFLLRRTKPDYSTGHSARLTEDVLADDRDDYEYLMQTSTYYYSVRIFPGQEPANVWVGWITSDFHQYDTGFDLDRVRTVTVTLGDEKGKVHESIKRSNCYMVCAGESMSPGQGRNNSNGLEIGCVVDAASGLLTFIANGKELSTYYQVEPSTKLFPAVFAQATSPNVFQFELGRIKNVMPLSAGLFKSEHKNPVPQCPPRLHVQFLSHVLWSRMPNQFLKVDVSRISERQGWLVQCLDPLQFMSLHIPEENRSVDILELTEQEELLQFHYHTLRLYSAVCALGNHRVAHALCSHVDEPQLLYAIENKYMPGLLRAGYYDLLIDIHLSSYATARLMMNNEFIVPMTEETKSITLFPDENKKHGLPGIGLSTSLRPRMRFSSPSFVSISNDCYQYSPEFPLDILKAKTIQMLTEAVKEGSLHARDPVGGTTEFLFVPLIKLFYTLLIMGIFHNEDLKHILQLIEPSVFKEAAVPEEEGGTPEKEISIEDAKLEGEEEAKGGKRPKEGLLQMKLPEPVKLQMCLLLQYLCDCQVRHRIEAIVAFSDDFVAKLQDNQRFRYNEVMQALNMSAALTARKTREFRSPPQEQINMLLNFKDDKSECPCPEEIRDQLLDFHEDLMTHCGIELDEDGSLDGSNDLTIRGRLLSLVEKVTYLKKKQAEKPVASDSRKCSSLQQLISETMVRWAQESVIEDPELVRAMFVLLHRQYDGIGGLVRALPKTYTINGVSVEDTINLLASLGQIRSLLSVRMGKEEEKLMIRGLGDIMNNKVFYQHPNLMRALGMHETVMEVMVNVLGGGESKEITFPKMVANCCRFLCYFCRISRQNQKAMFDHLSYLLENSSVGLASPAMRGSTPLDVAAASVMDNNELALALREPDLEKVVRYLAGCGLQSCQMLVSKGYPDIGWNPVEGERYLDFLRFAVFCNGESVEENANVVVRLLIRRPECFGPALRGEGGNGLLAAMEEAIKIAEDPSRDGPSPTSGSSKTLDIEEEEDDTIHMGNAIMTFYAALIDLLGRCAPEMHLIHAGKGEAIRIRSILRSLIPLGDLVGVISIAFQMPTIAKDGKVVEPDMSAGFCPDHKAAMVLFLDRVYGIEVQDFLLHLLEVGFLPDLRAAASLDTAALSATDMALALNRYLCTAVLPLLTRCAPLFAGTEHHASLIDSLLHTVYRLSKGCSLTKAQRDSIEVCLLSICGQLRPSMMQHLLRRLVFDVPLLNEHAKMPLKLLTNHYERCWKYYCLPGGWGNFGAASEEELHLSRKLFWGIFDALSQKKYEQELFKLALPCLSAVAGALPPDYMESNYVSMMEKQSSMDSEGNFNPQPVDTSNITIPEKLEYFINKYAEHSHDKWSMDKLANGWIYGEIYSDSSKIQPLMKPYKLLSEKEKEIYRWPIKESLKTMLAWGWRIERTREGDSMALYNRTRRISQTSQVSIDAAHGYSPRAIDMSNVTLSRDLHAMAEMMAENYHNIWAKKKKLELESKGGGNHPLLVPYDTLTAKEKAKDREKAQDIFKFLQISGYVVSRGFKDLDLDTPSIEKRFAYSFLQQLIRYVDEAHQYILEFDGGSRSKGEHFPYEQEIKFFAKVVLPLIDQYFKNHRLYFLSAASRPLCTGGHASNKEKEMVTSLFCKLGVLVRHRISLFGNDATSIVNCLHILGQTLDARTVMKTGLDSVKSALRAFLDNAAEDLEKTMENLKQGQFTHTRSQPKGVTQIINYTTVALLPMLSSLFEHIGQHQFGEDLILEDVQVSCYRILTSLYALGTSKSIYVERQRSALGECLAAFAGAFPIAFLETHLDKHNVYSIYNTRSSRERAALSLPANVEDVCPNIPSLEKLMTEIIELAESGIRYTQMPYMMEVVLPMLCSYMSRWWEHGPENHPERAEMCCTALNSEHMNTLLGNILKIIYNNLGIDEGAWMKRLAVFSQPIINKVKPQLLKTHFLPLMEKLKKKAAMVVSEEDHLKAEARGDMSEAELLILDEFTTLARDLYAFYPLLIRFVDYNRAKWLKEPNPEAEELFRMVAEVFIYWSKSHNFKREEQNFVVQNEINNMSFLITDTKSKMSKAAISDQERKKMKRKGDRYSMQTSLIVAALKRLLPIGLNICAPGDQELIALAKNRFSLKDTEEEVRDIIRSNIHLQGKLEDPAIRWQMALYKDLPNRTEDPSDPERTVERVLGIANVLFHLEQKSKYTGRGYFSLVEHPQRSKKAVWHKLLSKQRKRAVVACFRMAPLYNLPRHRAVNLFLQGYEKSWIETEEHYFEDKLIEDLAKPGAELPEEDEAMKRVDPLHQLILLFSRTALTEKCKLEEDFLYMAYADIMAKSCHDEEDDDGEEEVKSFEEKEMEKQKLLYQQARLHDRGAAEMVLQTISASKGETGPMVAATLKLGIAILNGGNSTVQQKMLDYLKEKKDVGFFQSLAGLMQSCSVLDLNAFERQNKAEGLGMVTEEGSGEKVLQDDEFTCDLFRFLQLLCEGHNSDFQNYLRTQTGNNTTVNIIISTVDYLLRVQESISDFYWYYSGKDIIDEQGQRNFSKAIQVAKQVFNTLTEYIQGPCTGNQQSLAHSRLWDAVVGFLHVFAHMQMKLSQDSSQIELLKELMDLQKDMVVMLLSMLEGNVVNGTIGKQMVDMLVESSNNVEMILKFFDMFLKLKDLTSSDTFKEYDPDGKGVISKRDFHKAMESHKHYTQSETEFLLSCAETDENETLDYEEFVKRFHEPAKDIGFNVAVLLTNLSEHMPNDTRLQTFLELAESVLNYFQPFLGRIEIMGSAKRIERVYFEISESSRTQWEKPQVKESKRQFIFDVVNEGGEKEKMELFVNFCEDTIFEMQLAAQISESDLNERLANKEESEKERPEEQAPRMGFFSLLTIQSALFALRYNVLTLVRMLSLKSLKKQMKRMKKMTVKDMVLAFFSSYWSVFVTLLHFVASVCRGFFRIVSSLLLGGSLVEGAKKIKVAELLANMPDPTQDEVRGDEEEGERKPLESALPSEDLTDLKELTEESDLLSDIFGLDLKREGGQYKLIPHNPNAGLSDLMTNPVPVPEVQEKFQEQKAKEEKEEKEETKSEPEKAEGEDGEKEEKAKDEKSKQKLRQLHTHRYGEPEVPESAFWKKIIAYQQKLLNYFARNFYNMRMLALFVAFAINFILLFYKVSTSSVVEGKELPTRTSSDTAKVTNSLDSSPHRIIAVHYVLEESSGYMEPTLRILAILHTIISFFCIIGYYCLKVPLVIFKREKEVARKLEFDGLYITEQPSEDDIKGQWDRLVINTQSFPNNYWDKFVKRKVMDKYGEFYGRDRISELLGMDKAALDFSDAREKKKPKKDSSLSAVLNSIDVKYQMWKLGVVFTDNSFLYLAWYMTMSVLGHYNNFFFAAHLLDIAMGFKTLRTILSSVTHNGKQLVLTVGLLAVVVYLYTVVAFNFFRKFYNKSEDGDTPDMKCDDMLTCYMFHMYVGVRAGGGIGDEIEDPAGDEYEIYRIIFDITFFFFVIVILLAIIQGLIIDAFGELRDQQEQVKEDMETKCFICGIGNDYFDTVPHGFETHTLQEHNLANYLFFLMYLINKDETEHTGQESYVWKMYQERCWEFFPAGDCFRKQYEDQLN

SMILES	Ca^2+ Inc (Ca^2+ increase over baseline) [4] [fold]	logP (Log P (Table 1))	effect on caffeine-stimulated Ca^2+ release compared with dantrolene [4]	also measured
O=C(N/N=C/c1ccc(-c2ccc(Cl)cc2)o1)N/N=C/c1ccc(-c2ccc(Cl)cc2)o1 [CK017]	–	–	–	RyR-evoked calcium response in AD neurons (RyR [1]): normalized aberrant RyR-evoked calcium signals; also recorded: significantly reduced to within physiological levels; RyR-evoked calcium responses after chronic treatment (RyR [2]): not different from the NonTg control responses; also recorded: not different from the control NonTg saline treated mice; Ratio of heart weight:body weight [3]: 3.6 × 10^−3
Cc1c(-c2ccc(/C=N/NC(N)=O)o2)ccc([N+](=O)[O-])c1C [RD14]	2.38	3.2	comparable to dantrolene's effect; also recorded: comparable or superior effects on Ca^2+ release	CNS penetration compared with dantrolene [5]: markedly improved; Kp [5]: 1.6; solubility compared with dantrolene [6]: markedly improved solubility
O=C(N/N=C/c1ccc(-c2ccc(Br)cc2)o1)c1ccc([N+](=O)[O-])cc1 [RD77]	>6	5	–	–
O=C(Cc1ccccc1)N/N=C/c1ccc(-c2ccccc2)o1 [CK013]	–	–	–	RyR-evoked calcium response in AD neurons (RyR [1]): normalized aberrant RyR-evoked calcium signals; also recorded: significantly reduced to within physiological levels; RyR-evoked calcium responses after chronic treatment (RyR [2]): not different from the NonTg control responses; also recorded: not different from the control NonTg saline treated mice; Ratio of heart weight:body weight [3]: 4.06 × 10^−3
O=C(N/N=C/c1ccc(-c2ccc([N+](=O)[O-])cc2Cl)o1)Nc1ccccc1 [RD54]	>6	5.1	–	–

The next lines start with results.

Ca^2+ Inc (Ca^2+ increase over baseline) [4] [fold]	logP (Log P (Table 1))	SMILES	effect on caffeine-stimulated Ca^2+ release compared with dantrolene [4]	also measured
1.06	2.5	CC(=O)N/N=C/c1ccc(-c2cccc([N+](=O)[O-])c2)o1 [RD09]	block calcium release to a greater degree than dantrolene	–
1.38	3	O=C(N/N=C/c1ccc(-c2cccc([N+](=O)[O-])c2)o1)c1ccccn1 [RD11]	block calcium release to a greater degree than dantrolene	–
1.43	1.8	O=C1CN(/N=C/c2ccc(-c3ccccc3)o2)C(=O)N1 [RD05]	block calcium release to a greater degree than dantrolene; also recorded: comparable or superior effects on Ca^2+ release	CNS penetration compared with dantrolene [5]: markedly improved; brain levels relative to those of dantrolene [5]: > 50 times; Kp [5]: 0.5; solubility compared with dantrolene [6]: markedly improved solubility
1.96	–	O=C1CN(/N=C/c2ccc(-c3ccc([N+](=O)[O-])cc3)o2)C(O)=N1 [dantrolene, 1-{[5-(4-nitrophenyl)-2-furyl]methylideneamino} imidazolidine-2,4-dione]	–	reduction of the evoked RyR-calcium response ([4]; caffeine (10 mM), pre-incubated 30 minutes): over 60%; soluble and insoluble Aβ deposition ([7]; 3×Tg-AD and PS1/APP, 4-week treatment, 5-10 mg/kg): significantly reduced; synaptic integrity (synaptophysin/PSD-95 colocalization), synaptic transmission properties ([7]; AD mice, 4-week treatment): restored synaptic transmission properties and synaptic integrity; ER calcium responses (soma, dendrites, dendritic spines) ([7]; AD mice, 4-week treatment, 5-10 mg/kg): returned the exaggerated ER-Ca^2+ release in dendritic spines to NonTg levels; also recorded: normalizes this calcium response; RyR2 mRNA expression levels, hippocampus ([7]; AD-Tg mice, 10 mg/kg, 4 weeks): normalized expression levels of RyR2; reduction of beta amyloid levels (4G8 immunostaining) ([7]; hippocampus and cortex, 4-week treatment): 45%; phospho-tau (CP13) staining, dentate gyrus (TG-CRND8 AD mice): reduces phosphorylated tau; also recorded: significantly reduced; amyloid pathology [8]: increase amyloid pathology
>6	5.5	O=C(N/N=C/c1ccc(-c2ccc([N+](=O)[O-])cc2)o1)c1ccc(Cl)cc1Cl [RD83]	–	–
4.25	3.4	CN1CCN(C(=O)N/N=C/c2ccc(-c3ccc([N+](=O)[O-])cc3Cl)o2)CC1 [RD10]	–	–
>6	4.4	O=C(N/N=C/c1ccc(-c2cccc(Cl)c2Cl)o1)c1ccccn1 [RD91]	–	–
